Measurements as given in ChEMBL document CHEMBL3886457, “Ethynyl derivatives” (2016).

Biological target: Metabotropic glutamate receptor 5 (Homo sapiens, UniProt P41594)
Experiment: Binding Assay: For binding experiments, cDNA encoding human mGlu 5a receptor was transiently transfected into EBNA cells using a procedure described by Schlaeger and Christensen [Cytotechnology 15:1-13 (1998)]. Cell membrane homogenates were stored at -80° C. until the day of assay where upon they were thawed and resuspended and polytronised in 15 mM Tris-HCl, 120 mM NaCl, 100 mM KCl, 25 mM CaCl2, 25 mM MgCl2 binding buffer at pH 7.4 to a final assay concentration of 20 ug protein/well.Saturation isotherms were determined by addition of twelve [3H]MPEP concentrations (0.04-100 nM) to these membranes (in a total volume of 200 ul) for 1 h at 4° C. Competition experiments were performed with a fixed concentration of [3H]MPEP (2 nM) and IC50 values of test compounds evaluated using 11 concentrations (0.3-10,000 nM). Incubations were performed for 1 h at 4° C.At the end of the incubation, membranes were filtered onto unifilter (96-well white microplate with bonded GF/C filter preincubated 1 h in 0.1% PEI in wash buffer, Packard BioScience, Meriden, Conn.) with a Filtermate 96 harvester (Packard BioScience) and washed 3 times with cold 50 mM Tris-HCl, pH 7.4 buffer. Nonspecific binding was measured in the presence of 10 uM MPEP. […]

Metabotropic glutamate receptor 5, sequence (P41594 whole entry): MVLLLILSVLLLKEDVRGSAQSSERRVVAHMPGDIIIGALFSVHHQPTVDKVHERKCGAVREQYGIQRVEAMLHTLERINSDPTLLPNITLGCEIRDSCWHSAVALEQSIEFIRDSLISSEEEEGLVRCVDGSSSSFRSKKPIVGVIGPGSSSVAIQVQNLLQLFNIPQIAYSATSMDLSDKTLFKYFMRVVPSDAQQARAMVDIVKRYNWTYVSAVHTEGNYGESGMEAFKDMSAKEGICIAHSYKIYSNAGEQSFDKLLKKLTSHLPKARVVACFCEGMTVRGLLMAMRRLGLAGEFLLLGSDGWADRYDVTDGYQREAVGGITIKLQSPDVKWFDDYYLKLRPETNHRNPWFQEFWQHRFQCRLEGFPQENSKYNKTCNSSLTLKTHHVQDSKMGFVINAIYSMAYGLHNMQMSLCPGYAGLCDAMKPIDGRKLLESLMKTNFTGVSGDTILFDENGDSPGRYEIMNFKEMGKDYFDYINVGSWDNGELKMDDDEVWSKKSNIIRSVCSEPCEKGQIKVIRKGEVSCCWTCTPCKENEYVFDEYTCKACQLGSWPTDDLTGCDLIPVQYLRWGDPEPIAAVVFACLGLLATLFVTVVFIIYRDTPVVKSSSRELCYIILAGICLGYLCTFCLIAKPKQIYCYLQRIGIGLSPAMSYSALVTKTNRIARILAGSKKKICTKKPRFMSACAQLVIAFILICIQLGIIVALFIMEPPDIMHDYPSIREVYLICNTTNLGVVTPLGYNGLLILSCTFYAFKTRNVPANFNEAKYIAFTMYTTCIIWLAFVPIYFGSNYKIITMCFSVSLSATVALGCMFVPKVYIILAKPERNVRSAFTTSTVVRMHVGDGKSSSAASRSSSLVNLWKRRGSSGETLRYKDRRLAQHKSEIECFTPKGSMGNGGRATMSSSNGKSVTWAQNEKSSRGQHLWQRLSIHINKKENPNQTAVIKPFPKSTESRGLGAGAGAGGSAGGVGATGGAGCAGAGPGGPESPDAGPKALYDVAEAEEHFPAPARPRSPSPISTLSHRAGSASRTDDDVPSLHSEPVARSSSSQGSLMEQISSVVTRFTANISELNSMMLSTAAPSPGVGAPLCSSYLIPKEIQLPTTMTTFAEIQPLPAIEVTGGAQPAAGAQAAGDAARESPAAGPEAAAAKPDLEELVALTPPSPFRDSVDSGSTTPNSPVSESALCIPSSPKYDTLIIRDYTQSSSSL

Ki: 19 nM
SMILES: O=C(c1ccc(C#Cc2cccc(Cl)c2)cn1)N1CCOCC1
